Results as given in patent publication US7932270B2 (Cytokinetics, Inc., priority 2006, dated 2011).
pIC50: −log10 of the molar value.

Each compound was assayed against T1, chicken gizzard smooth muscle myosin subfragment-1 chemically crosslinked to cardiac or skeletal actin (Gallus gallus, UniProt P10587) (assay: Smooth muscle myosin ATPase dose response assay (pyruvate kinase/horseradish peroxidase/pyruvate oxidase-coupled, amplex red fluorescence)). Settings: read-out: IC50 Arithmetic Mean.
T1 construct: chicken gizzard smooth muscle myosin subfragment-1; from tissue; host or cells: chicken gizzard
Assay type: biochemical
Summary of the method: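 Inhibition is measured in a peroxidase/pyruvate oxidase-linked format at pH 7.00 and 22° C, 0.15 mM ATP final. Myosin input is titrated to a target turnover since active fraction differs between preparations.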

T1 sequence (P02607 2-151): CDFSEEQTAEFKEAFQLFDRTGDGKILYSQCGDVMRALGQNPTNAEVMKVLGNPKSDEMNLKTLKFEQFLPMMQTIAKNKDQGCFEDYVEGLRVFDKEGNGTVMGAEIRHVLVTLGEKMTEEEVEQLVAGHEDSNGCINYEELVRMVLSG
T1 sequence (P10587 84-789): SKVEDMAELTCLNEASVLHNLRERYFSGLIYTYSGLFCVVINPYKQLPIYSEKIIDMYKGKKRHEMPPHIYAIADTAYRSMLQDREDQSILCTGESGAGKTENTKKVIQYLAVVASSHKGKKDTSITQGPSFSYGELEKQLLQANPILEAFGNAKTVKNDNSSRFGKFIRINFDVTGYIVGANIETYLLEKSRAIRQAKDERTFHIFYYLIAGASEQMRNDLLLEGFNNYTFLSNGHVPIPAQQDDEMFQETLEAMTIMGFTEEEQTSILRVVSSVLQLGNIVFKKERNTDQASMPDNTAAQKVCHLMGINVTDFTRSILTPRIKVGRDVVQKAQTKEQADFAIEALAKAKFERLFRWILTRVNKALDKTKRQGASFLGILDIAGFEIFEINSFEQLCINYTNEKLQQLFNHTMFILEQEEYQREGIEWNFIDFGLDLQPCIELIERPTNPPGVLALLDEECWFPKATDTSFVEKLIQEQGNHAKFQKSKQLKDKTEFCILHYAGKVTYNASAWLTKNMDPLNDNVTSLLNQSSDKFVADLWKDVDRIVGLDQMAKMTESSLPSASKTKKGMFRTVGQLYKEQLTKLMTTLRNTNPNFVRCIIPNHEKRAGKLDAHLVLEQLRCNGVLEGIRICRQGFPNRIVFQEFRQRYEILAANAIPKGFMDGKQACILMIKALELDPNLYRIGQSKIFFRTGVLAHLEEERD

Row | SMILES | pIC50
1 | CC(C)(C)OC(=O)NCCCC(=O)N1CCC[C@@H]1CNC(=O)c1cc(F)c(-c2cn[nH]c2)nc1NCCc1cccc(F)c1 [N-[((2R)-1-{4-[(tert-butoxy)carbonylamino]butanoyl}pyrrolidin-2-yl)methyl](5-fluoro-2-{[2-(3-fluorophenyl)ethyl]amino}-6-pyrazol-4-yl(3-pyridyl))carboxamide] | 6.12
2 | CC(C)(C)OC(=O)NCCCC(=O)N1CCC[C@@H]1CNC(=O)c1ccc(-c2ccccc2C#N)nc1NCCc1cccc(F)c1 [N-[((2R)-1-{4-[(tert-butoxy)carbonylamino]butanoyl}pyrrolidin-2-yl)methyl](6-(2-cyanophenyl)-2-{[2-(3-fluorophenyl)ethyl]amino}(3-pyridyl))carboxamide] | 6.36
3 | CC(C)(C)OC(=O)NCCCC(=O)N1CCC[C@@H]1CNC(=O)c1cc(F)c(-c2ccccc2C#N)nc1NCCc1cccc(F)c1 [N-[((2R)-1-{4-[(tert-butoxy)carbonylamino]butanoyl}pyrrolidin-2-yl)methyl](6-(2-cyanophenyl)-5-fluoro-2-{[2-(3-fluorophenyl)ethyl]amino}(3-pyridyl))carboxamide] | 5.98
4 | CC(C)(C)OC(=O)NCCCCC(=O)N1CCC[C@@H]1CNC(=O)c1ccc(-c2ccccc2C#N)nc1NCCc1cccc(F)c1 [N-[((2R)-1-{5-[(tert-butoxy)carbonylamino]pentanoyl}pyrrolidin-2-yl)methyl](6-(2-cyanophenyl)-2-{[2-(3-fluorophenyl)ethyl]amino}(3-pyridyl))carboxamide] | 5.53
5 | Cn1cc(-c2nc(NCCc3cccc(F)c3)c(C(=O)NC[C@H]3CCCN3C(=O)[C@H](CCCNC(=O)OC(C)(C)C)NC(=O)OC(C)(C)C)cc2F)cn1 [N-[((2R)-1-{(2S)-2,5-bis[(tert-butoxy)carbonylamino]pentanoyl}pyrrolidin-2-yl)methyl](5-fluoro-2-{[2-(3-fluorophenyl)ethyl]amino}-6-(1-methylpyrazol-4-yl)(3-pyridyl))carboxamide] | 4.71
6 | CC(C)(C)OC(=O)N[C@@H](CO)C(=O)N1CCC[C@@H]1CNC(=O)c1cc(F)c(-c2cn[nH]c2)nc1NCCc1cccc(F)c1 [N-[((2R)-1-{(2S)-2-[(tert-butoxy)carbonylamino]-3-hydroxypropanoyl}pyrrolidin-2-yl)methyl](5-fluoro-2-{[2-(3-fluorophenyl)ethyl]amino}-6-pyrazol-4-yl(3-pyridyl))carboxamide] | 6.00
7 | N#Cc1ccccc1-c1ccc(C(=O)NC[C@H]2CCCN2S(=O)(=O)CCCN2C(=O)c3ccccc3C2=O)c(NCCc2cccc(F)c2)n1 [N-[((2R)-1-{[3-(1,3-dioxobenzo[c]azolin-2-yl)propyl]sulfonyl}pyrrolidin-2-yl)methyl](6-(2-cyanophenyl)-2-{[2-(3-fluorophenyl)ethyl]amino}(3-pyridyl))carboxamide] | 4.95
8 | CC(C)(C)OC(=O)NCCCN1CC(=O)N[C@H](CNC(=O)c2ccc(-c3ccccc3C#N)nc2NCCc2cccc(F)c2)C1 [N-[((2R)-4-{3-[(tert-butoxy)carbonylamino]propyl}-6-oxopiperazin-2-yl)methyl](6-(2-cyanophenyl)-2-{[2-(3-fluorophenyl)ethyl]amino}(3-pyridyl))carboxamide] | 5.02
9 | Cn1cc(-c2ccc(C(=O)NC[C@H]3CCC(=O)N3)c(NCCc3cccc(F)c3)n2)cn1 [N-[((2R)-5-oxopyrrolidin-2-yl)methyl](2-{[2-(3-fluorophenyl)ethyl]amino}-6-(1-methylpyrazol-4-yl)(3-pyridyl))carboxamide] | 6.81
10 | O=C1CC[C@H](CNC(=O)c2ccc(-c3cc[nH]n3)nc2NCCc2cccc(F)c2)N1 [N-[((2R)-5-oxopyrrolidin-2-yl)methyl](2-{[2-(3-fluorophenyl)ethyl]amino}-6-pyrazol-3-yl(3-pyridyl))carboxamide] | 6.45
11 | O=C1CC[C@H](CNC(=O)c2ccc(-c3cn[nH]c3)nc2NCCc2cccc(F)c2)N1 [N-[((2R)-5-oxopyrrolidin-2-yl)methyl](2-{[2-(3-fluorophenyl)ethyl]amino}-6-pyrazol-4-yl(3-pyridyl))carboxamide] | 6.92
12 | Cn1cc(-c2nc(NCCc3cccc(F)c3)c(C(=O)NC[C@H]3CCC(=O)N3)cc2F)cn1 [N-[((2R)-5-oxopyrrolidin-2-yl)methyl](5-fluoro-2-{[2-(3-fluorophenyl)ethyl]amino}-6-(1-methylpyrazol-4-yl)(3-pyridyl))carboxamide] | 7.57
13 | N#Cc1ccccc1-c1ccc(C(=O)NC[C@H]2CCC(=O)N2)c(NCCc2cccc(F)c2)n1 [N-[((2R)-5-oxopyrrolidin-2-yl)methyl](6-(2-cyanophenyl)-2-{[2-(3-fluorophenyl)ethyl]amino}(3-pyridyl))carboxamide] | 7.89
14 | N#Cc1ccccc1-c1ccc(C(=O)NC[C@H]2CCCC(=O)N2)c(NCCc2cccc(F)c2)n1 [N-[((2R)-6-oxo(2-piperidyl))methyl](6-(2-cyanophenyl)-2-{[2-(3-fluorophenyl)ethyl]amino}(3-pyridyl))carboxamide] | 7.82
15 | N#Cc1ccccc1-c1ccc(C(=O)NC[C@H]2CNCC(=O)N2)c(NCCc2cccc(F)c2)n1 [N-[((2R)-6-oxopiperazin-2-yl)methyl](6-(2-cyanophenyl)-2-{[2-(3-fluorophenyl)ethyl]amino}(3-pyridyl))carboxamide] | 6.81
16 | O=C(NC[C@H]1CCN1)c1ccc(-c2cn[nH]c2)nc1NCCc1cccc(F)c1 [N-[((2R)azetidin-2-yl)methyl](2-{[2-(3-fluorophenyl)ethyl]amino}-6-pyrazol-4-yl(3-pyridyl))carboxamide] | 5.26

Row | SMILES | pIC50
17 | Cn1cc(-c2nc(NCCc3cccc(F)c3)c(C(=O)NC[C@H]3CCN3)cc2F)cn1 [N-[((2R)azetidin-2-yl)methyl](5-fluoro-2-{[2-(3-fluorophenyl)ethyl]amino}-6-(1-methylpyrazol-4-yl)(3-pyridyl))carboxamide] | 5.80
18 | O=C(NC[C@H]1CCN1)c1cc(F)c(-c2cn[nH]c2)nc1NCCc1cccc(F)c1 [N-[((2R)azetidin-2-yl)methyl](5-fluoro-2-{[2-(3-fluorophenyl)ethyl]amino}-6-pyrazol-4-yl(3-pyridyl))carboxamide] | 6.33
19 | N#Cc1ccccc1-c1ccc(C(=O)NC[C@H]2CCN2)c(NCCc2cccc(F)c2)n1 [N-[((2R)azetidin-2-yl)methyl](6-(2-cyanophenyl)-2-{[2-(3-fluorophenyl)ethyl]amino}(3-pyridyl))carboxamide] | 6.38
20 | N#Cc1ccccc1-c1ccc(C(=O)NC[C@H]2CNCCN2)c(NCCc2cccc(F)c2)n1 [N-[((2R)piperazin-2-yl)methyl](6-(2-cyanophenyl)-2-{[2-(3-fluorophenyl)ethyl]amino}(3-pyridyl))carboxamide] | 4.91
21 | Cc1cc(C(=O)NC[C@H]2CCCN2)c(NCCc2cccc(F)c2)nc1-c1cnn(C)c1 [N-[((2R)pyrrolidin-2-yl)methyl](2-{[2-(3-fluorophenyl)ethyl]amino}-5-methyl-6-(1-methylpyrazol-4-yl)(3-pyridyl))carboxamide] | 6.05
22 | Cn1cc(-c2ccc(C(=O)NC[C@H]3CCCN3)c(NCCc3cccc(F)c3)n2)cn1 [N-[((2R)pyrrolidin-2-yl)methyl](2-{[2-(3-fluorophenyl)ethyl]amino}-6-(1-methylpyrazol-4-yl)(3-pyridyl))carboxamide] | 5.50
23 | O=C(NC[C@H]1CCCN1)c1ccc(-c2cn[nH]c2)nc1NCCc1cccc(F)c1 [N-[((2R)pyrrolidin-2-yl)methyl](2-{[2-(3-fluorophenyl)ethyl]amino}-6-pyrazol-4-yl(3-pyridyl))carboxamide] | 5.32
24 | Cn1cc(-c2nc(NCCc3cccc(F)c3)c(C(=O)NC[C@H]3CCCN3)cc2Cl)cn1 [N-[((2R)pyrrolidin-2-yl)methyl](5-chloro-2-{[2-(3-fluorophenyl)ethyl]amino}-6-(1-methylpyrazol-4-yl)(3-pyridyl))carboxamide] | 6.78
25 | Cn1cc(-c2nc(NCCc3cccc(F)c3)c(C(=O)NC[C@H]3CCCN3)cc2C#N)cn1 [N-[((2R)pyrrolidin-2-yl)methyl](5-cyano-2-{[2-(3-fluorophenyl)ethyl]amino}-6-(1-methylpyrazol-4-yl)(3-pyridyl))carboxamide] | 6.55
26 | N#Cc1cc(C(=O)NC[C@H]2CCCN2)c(NCCc2cccc(F)c2)nc1-c1cn[nH]c1 [N-[((2R)pyrrolidin-2-yl)methyl](5-cyano-2-{[2-(3-fluorophenyl)ethyl]amino}-6-pyrazol-4-yl(3-pyridyl))carboxamide] | 6.20
27 | Cn1cc(-c2nc(NCCc3cccc(F)c3)c(C(=O)NC[C@H]3CCCN3)cc2F)cn1 [N-[((2R)pyrrolidin-2-yl)methyl](5-fluoro-2-{[2-(3-fluorophenyl)ethyl]amino}-6-(1-methylpyrazol-4-yl)(3-pyridyl))carboxamide] | 6.56
28 | O=C(NC[C@H]1CCCN1)c1cc(F)c(-c2cn[nH]c2)nc1NCCc1cccc(F)c1 [N-[((2R)pyrrolidin-2-yl)methyl](5-fluoro-2-{[2-(3-fluorophenyl)ethyl]amino}-6-pyrazol-4-yl(3-pyridyl))carboxamide] | 6.40
29 | N#Cc1ccccc1-c1ccc(C(=O)NC[C@H]2CCCN2)c(NCCc2cccc(F)c2)n1 [N-[((2R)pyrrolidin-2-yl)methyl](6-(2-cyanophenyl)-2-{[2-(3-fluorophenyl)ethyl]amino}(3-pyridyl))carboxamide] | 6.76
30 | N#Cc1ccccc1-c1nc(NCCc2cccc(F)c2)c(C(=O)NC[C@H]2CCCN2)cc1F [N-[((2R)pyrrolidin-2-yl)methyl](6-(2-cyanophenyl)-5-fluoro-2-{[2-(3-fluorophenyl)ethyl]amino}(3-pyridyl))carboxamide] | 6.99
31 | N#Cc1ccccc1-c1ccc(C(=O)NC[C@@H]2CCCCN2)c(NCCc2cccc(F)c2)n1 [N-[((2S)(2-piperidyl))methyl](6-(2-cyanophenyl)-2-{[2-(3-fluorophenyl)ethyl]amino}(3-pyridyl))carboxamide] | 5.99
